Test results: patent US10807986B2, “Fused pyrimidine compound or salt thereof” (TAIHO PHARMACEUTICAL CO., LTD., priority 2016, dated 2020)

Experiment: Evaluation of stability in liver microsome
Conditions: mouse liver microsome 0.25 mg/mL, test compound 1 μM, 37° C., 30 minutes

| Structure (SMILES) | Remaining (%) |
| --- | --- |
| Nc1ncnc2c1c(C(=O)Nc1ccc(Oc3ccccc3)cc1)cn2C1CCCC1 [Compound 2 of Comparative Examples, 4-amino-7-cyclopentyl-N-(4-phenoxyphenyl)-7H-pyrrolo[2,3-d]pyrimidine-5-carboxamide, reference compound] | 0 |
| COCc1ccc(NC(=O)c2cn(C(C)(C)C)c3ncnc(N)c23)cc1 [Example 2, 4-amino-7-(tert-butyl)-N-(4-(methoxymethyl)phenyl)-7H-pyrrolo[2,3-d]pyrimidine-5-carboxamide] | 64 |
| COCc1ccc(NC(=O)c2cn(C(C)(C)C)c3ncnc(N)c23)cc1F [Example 30, 4-amino-7-(tert-butyl)-N-(3-fluoro-4-(methoxymethyl)phenyl)-7H-pyrrolo[2,3-d]pyrimidine-5-carboxamide] | 54 |
| COCc1ccc(NC(=O)c2cn(C(C)(C)C)c3ncnc(N)c23)c(OC)c1 [Example 33, 4-amino-7-(tert-butyl)-N-(2-methoxy-4-(methoxymethyl)phenyl)-7H-pyrrolo[2,3-d]pyrimidine-5-carboxamide] | 57 |
| [2H]C([2H])([2H])OCc1ccc(NC(=O)c2cn(C(C)(C)C)c3ncnc(N)c23)cc1 [Example 35, 4-amino-7-(tert-butyl)-N-(4-((methoxy-d3)-methyl)phenyl)-7H-pyrrolo[2,3-d]pyrimidine-5-carboxamide] | 58 |
| COCc1ccc(NC(=O)c2cn(C3(C)CC3)c3ncnc(N)c23)cc1 [Example 36, 4-amino-N-(4-(methoxymethyl)phenyl)-7-(1-methylcyclopropyl)-7H-pyrrolo[2,3-d]pyrimidine-5-carboxamide] | 73 |
| COCc1ccc(NC(=O)c2cn(C(C)(C)CF)c3ncnc(N)c23)cc1F [Example 41, 4-amino-7-(1-fluoro-2-methylpropan-2-yl)-N-(3-fluoro-4-(methoxymethyl)phenyl)-7H-pyrrolo[2,3-d]pyrimidine-5-carboxamide] | 56 |
| COCc1ccc(NC(=O)c2cn(C3(CF)CC3)c3ncnc(N)c23)cc1 [Example 45, 4-amino-7-(1-(fluoromethyl)cyclopropyl)-N-(4-(methoxymethyl)phenyl)-7H-pyrrolo[2,3-d]pyrimidine-5-carboxamide] | 66 |
| COCc1ccc(NC(=O)c2cn(C3(C(F)F)CC3)c3ncnc(N)c23)cc1 [Example 46, 4-amino-7-(1-(difluoromethyl)cyclopropyl)-N-(4-(methoxymethyl)phenyl)-7H-pyrrolo[2,3-d]pyrimidine-5-carboxamide] | 65 |

Results, then the compound that gave them:

| Remaining (%) | Structure (SMILES) |
| --- | --- |
| 58 | COCc1ccc(NC(=O)c2cn(C3(C)CC3)c3ncnc(N)c23)cc1F [Example 48, 4-amino-N-(3-fluoro-4-(methoxymethyl)phenyl)-7-(1-methylcyclopropyl)-7H-pyrrolo[2,3-d]pyrimidine-5-carboxamide] |
| 67 | COCc1ccc(NC(=O)c2cn(C3(C4CC4)CC3)c3ncnc(N)c23)cc1 [Example 49, 7-{[1,1-bi(cyclopropane)]-1-yl}-4-amino-N-(4-(methoxymethyl)phenyl)-7H-pyrrolo[2,3-d]pyrimidine-5-carboxamide] |
| 53 | COCc1ccc(NC(=O)c2cn(C(C)(C)C(F)F)c3ncnc(N)c23)cc1 [Example 50, 4-amino-7-(1,1-difluoro-2-methylpropan-2-yl)-N-(4-(methoxymethyl)phenyl)-7H-pyrrolo[2,3-d]pyrimidine-5-carboxamide] |
| 56 | COCc1ccc(NC(=O)c2c(Br)n(C3(C)CC3)c3ncnc(N)c23)cc1 [Example 55, 4-amino-6-bromo-N-[4-(methoxymethyl)phenyl]-7-(1-methylcyclopropyl)-7H-pyrrolo[2,3-d]pyrimidine-5-carboxamide] |
| 62 | COCc1ccc(NC(=O)c2c(Cl)n(C3(C)CC3)c3ncnc(N)c23)cc1 [Example 56, 4-amino-6-chloro-N-[4-(methoxymethyl)phenyl]-7-(1-methylcyclopropyl)-7H-pyrrolo[2,3-d]pyrimidine-5-carboxamide] |
